# Where two headings read alike, the source gives them in different places.
# What was measured:
# [1] = test system: A. flavus; experiment: In vitro antifungal activity (MIC100, CLSI/NCCLS); assay type: cell-based; conditions: Aspergillus flavus; A. fla.; average of three readings; read-out: MIC 100
# Procedure: (§1) The newly synthesized derivatives 4(a–f) and 6(a–f) were screened for their in vitro antifungal activity against different yeast and filamentous fungal pathogens. Minimum inhibitory concentration (MIC100) values for in vitro antifungal activity were determined by the methods recommended by National Committee for Clinical Laboratory Standards (NCCLS). Miconazole was used as standard drug. Dimethyl sulfoxide (DMSO) was used as solvent control.
# (§2) In vitro antifungal activity was determined as per CLSI (formerly, NCCLS) guidelines. […] The medium yeast nitrogen base was dissolved in phosphate buffer pH 7 and it was autoclaved at 110 °C for 10 min. With each set a growth control without the antifungal agent and solvent control DMSO were included. The fungal strains were freshly sub cultured on to Sabouraud dextrose agar (SDA) and incubated at 25 °C for 72 h. The fungal cells were suspended in sterile distilled water and diluted to get 10^5 cells/mL. Further, ten microlitres of the standardized suspension was inoculated onto the control plates and the media incorporated with the antifungal agents. The inoculated plates were incubated at 25 °C for 48 h. The readings were taken at the end of 48 h and 72 h. The MIC was the lowest concentration of drug preventing growth of macroscopically visible colonies on drug containing plates when there was visible growth on the drug free control plates.
# [2] = test system: Fusarium oxysporum; experiment: In vitro antifungal activity (MIC100, CLSI/NCCLS); assay type: cell-based; conditions: F. oxy., average of three readings, read-out: MIC 100
# Procedure: as §1, §2
# [3] = test system: Candida albicans; experiment: In vitro antifungal activity (MIC100, CLSI/NCCLS); assay type: cell-based; conditions: C. alb., average of three readings, read-out: MIC 100
# Procedure: as §1, §2
# [4] = test system: Aspergillus niger; experiment: In vitro antifungal activity (MIC100, CLSI/NCCLS); assay type: cell-based; conditions: A. nig., average of three readings, read-out: MIC 100
# Procedure: as §1, §2
# [5] = test system: Aspergillus fumigates; experiment: In vitro antifungal activity (MIC100, CLSI/NCCLS); assay type: cell-based; conditions: A. fum., average of three readings, read-out: MIC 100
# Procedure: as §1, §2
# [6] = test system: Candida glabrata; experiment: In vitro antifungal activity (MIC100, CLSI/NCCLS); assay type: cell-based; conditions: Nakaseomyces glabratus; C. glab.; average of three readings; read-out: MIC 100
# Procedure: as §1, §2
# [7] = test system: Cryptococcus neoformans; experiment: In vitro antifungal activity (MIC100, CLSI/NCCLS); assay type: cell-based; conditions: C. neo., average of three readings, read-out: MIC 100
# Procedure: as §1, §2
# [8] = target: DdlB from E.coli (Escherichia coli, UniProt P07862); experiment: D-Alanine-D-alanine ligase (DdlB) enzyme inhibition, malachite green method; assay type: biochemical; conditions: 37 °C, 30 min incubation, 5% DMSO
# Procedure: The key enzyme involved in the peptidoglycan biosynthesis is D-alanine-D-alanine ligase (Ddl), making it an important target for drug discovery. Inhibition of DdlB as an essential enzyme in either Gram-positive or Gram-negative organisms leads to the loss of cell shape and integrity followed by bacterial death. The synthesized derivatives 4(a–f) and 6(a–f) were tested for their inhibitory activity on DdlB from E.coli. The results are presented as IC50 values.
# The D-Ala-adding activity of DdlB ligase was monitored by the detection of orthophosphate generated during the reaction based on the colorimetric malachite green method described by Walsh et al.. […] All the compounds were soluble in the assay mixture containing 5% DMSO. After 30 min of incubation, 100 µL Biomol reagent was added. After 5 min, absorbance was read at 650 nm. Residual activity was calculated with respect to a similar assay without inhibitor. To exclude possible non-specific (promiscuous) inhibitors, representative compounds 4(a–f) and 6(a–f) were also tested in the presence of Tween (0.003%), Triton X-114 (0.005%), and SDS (420 µM), as described by McGovern et al.. No significant differences were found when compared to measurements without detergents.
# [9] = test system: Escherichia coli 1411; experiment: In vitro antibacterial activity (MIC100, two fold serial dilution, NCCLS); assay type: cell-based; conditions: read-out: MIC100
# Procedure: (§3) All the synthesized compounds 4(a–f) and 6(a–f) were screened for their in vitro antibacterial activity against Staphylococcus aureus (NCIM-2901), Escherichia coli 1411 (standard laboratory strains) and Escherichia coli SM1411 (an acrAB deficient derivative of 1411). Minimum inhibitory concentration (MIC100) values were determined using methods recommended by National Committee for Clinical Laboratory Standards (NCCLS). Dimethyl sulfoxide (DMSO) was used as solvent control.
# (§4) All the synthesized compounds 4(a–f) and 6(a–f) were screened for their in vitro antibacterial activity against Staphylococcus aureus (NCIM-2901) and Escherichia coli 1411 (standard laboratory strains) and Escherichia coli SM1411 (an acrAB deficient derivative of 1411). Minimum inhibitory concentration (MIC100) values were determined using the method recommended by National Committee for Clinical Laboratory Standards (NCCLS). In vitro antibacterial activities of the synthesized compounds 4(a–f) and 6(a–f) were tested in Nutrient Broth (NB) for Bacteria by the two fold serial dilution method. Seeded broth (broth containing microbial spores) was prepared in NB from 24 h old bacterial cultures on nutrient agar (Hi-media) at 37 ± 1 °C. The bacterial suspension was adjusted with sterile saline to a concentration of […]. The synthesized compounds and standard drug D-cycloserine were prepared by two fold serial dilutions to obtain the required concentrations. The tubes were incubated in BOD incubators at 37 ± 1 °C for bacteria. The MICs were recorded by visual observations after 24 h (for bacteria) of incubation.
# [10] = test system: Staphylococcus aureus (NCIM-2901); experiment: as above; assay type: cell-based; conditions: for MIC: Staphylococcus aureus
# Procedure: as §3, §4
# [11] = test system: Escherichia coli SM1411 (an acrAB deficient derivative of 1411); experiment: as above; assay type: cell-based; conditions: 24 h, read-out: MIC100
# Procedure: as §3, §4
# [12] = NCIM2901, 24 h, read-out: MIC100, S. aureus NCIM-2901, average of three readings
SMILES,melting point [°C],MIC [1] [µg/mL],MIC [2] [µg/mL],MIC [3] [µg/mL],MIC [4] [µg/mL],MIC [5] [µg/mL],MIC [6] [µg/mL],MIC [7] [µg/mL],IC50 [8] [µM],"MIC ([9]; Escherichia coli, 1411, 24 h) [µg/mL]","MIC [10, 12] [µg/mL]",MIC [11] [µg/mL],"MIC ([9]; Escherichia coli, E. coli 1411, 24 h, average of three readings) [µg/mL]","MIC ([10]; NCIM2901, S. aureus NCIM-2901, 24 h, average of three readings, read-out: MIC100) [µg/mL]","MIC100 ([10]; S. aureus NCIM-2901, 24 h, average of three readings) [µg/mL]"
"CC1=C(C(=O)NN)C(c2coc3ccccc3c2=O)NC(=O)N1 (centres unmarked) [Compound 6a, 6-Methyl-2-oxo-4-(4-oxo-4H-chromen-3-yl)-1,2,3,4-tetrahydropyrimidine-5-carbohydrazide]",256 to 258,68,76,78,55,60,68,58,127,34,66,32,,,
"CCOC(=O)C1=C(C)NC(=O)NC1c1coc2ccc(F)cc2c1=O (centres unmarked) [Compound 4c, Ethyl 4-(6-fluoro-4-oxo-4H-chromen-3-yl)-6-methyl-2-oxo-1,2,3,4-tetrahydropyrimidine-5-carboxylate]",200 to 202,58,58,52,44,62,58,46,155,38,30,34,,,
"CCOC(=O)C1=C(C)NC(=S)NC1c1coc2ccccc2c1=O (centres unmarked) [Compound 4b, Ethyl 6-methyl-4-(4-oxo-4H-chromen-3-yl)-2-thioxo-1,2,3,4-tetrahydropyrimidine-5-carboxylate]",210 to 212,66,58,64,52,60,66,55,296,50,68,50,,,
"N[C@@H]1CON=C1O [D-Cycloserine, reference compound]",,,,,,,,,276,,,16,16,32,
"CCOC(=O)C1=C(C)NC(=S)NC1c1coc2ccc(OC)cc2c1=O (centres unmarked) [Compound 4e, Ethyl 4-(6-methoxy-4-oxo-4H-chromen-3-yl)-6-methyl-2-thioxo-1,2,3,4-tetrahydropyrimidine-5-carboxylate]",222 to 224,18,30,30,18,34,32,20,335,58,> 200,> 60,,,
"CCOC(=O)C1=C(C)NC(=S)NC1c1coc2ccc(F)cc2c1=O (centres unmarked) [Compound 4f, Ethyl 4-(6-fluoro-4-oxo-4H-chromen-3-yl)-6-methyl-2-thioxo-1,2,3,4-tetrahydropyrimidine-5-carboxylate]",228 to 230,34,48,46,34,55,44,30,280,48,72,44,,,
"COc1ccc2occ(C3NC(=O)NC(C)=C3C(=O)NN)c(=O)c2c1 (centres unmarked) [Compound 6e, 4-(6-Methoxy-4-oxo-4H-chromen-3-yl)-6-methyl-2-oxo-1,2,3,4-tetrahydropyrimidine-5-carbohydrazide]",208 to 210,16,30,28,18,32,30,16,315,> 60,156,58,,,
"CCOC(=O)C1=C(C)NC(=O)NC1c1coc2ccc(OC)cc2c1=O (centres unmarked) [Compound 4d, Ethyl 4-(6-methoxy-4-oxo-4H-chromen-3-yl)-6-methyl-2-oxo-1,2,3,4-tetrahydropyrimidine-5-carboxylate]",230 to 232,20,36,34,20,36,38,24,330,55,> 200,54,,,
"CC1=C(C(=O)NN)C(c2coc3ccc(F)cc3c2=O)NC(=S)N1 (centres unmarked) [Compound 6d, 4-(6-Fluoro-4-oxo-4H-chromen-3-yl)-6-methyl-2-thioxo-1,2,3,4-tetrahydropyrimidine-5-carbohydrazide]",146 to 148,30,44,44,28,52,40,28,111,16,32,18,,,40
